According to ChEMBL document CHEMBL3046283, “The simple synthesis and antimicrobial activity of novel fluoroquinolone derivatives from natural amino acid salts” (2012):
Structures can show the parent of a compound that is named as a salt. The source made the active and inactive calls. No cut-off for these calls is given here.

Key:
Candida albicans = assay: Antifungal activity against Candida albicans at 0.1 to 1 mg/ml after 24 hr by […]; type: functional, organism-based
Staphylococcus aureus [1] = assay: Antibacterial activity against Staphylococcus aureus at 0.1 mg/ml after 24 hr by […]; type: functional
Aspergillus fumigatus [2] = assay: Antifungal activity against Aspergillus fumigatus at 0.2 mg/ml after 24 hr by […]; type: functional
Aspergillus fumigatus [3] = assay: Antifungal activity against Aspergillus fumigatus at 1 mg/ml after 24 hr by […]; type: functional; settings: for zone of inhibition at 1000 µg/mL: read-out: DIZ
Aspergillus fumigatus [4] = assay: Antifungal activity against Aspergillus fumigatus at 0.1 mg/ml after 24 hr by […]; type: functional, organism-based
Bacillus subtilis [5] = assay: Antibacterial activity against Bacillus subtilis at 0.2 mg/ml after 24 hr by […]; type: functional; settings: read-out: DIZ
Staphylococcus aureus [6] = assay: Antibacterial activity against Staphylococcus aureus at 1 mg/ml after 24 hr by […]; type: functional; settings: for zone of inhibition at 1000 µg/mL: read-out: DIZ
Bacillus subtilis [7] = assay: Antibacterial activity against Bacillus subtilis at 0.1 mg/ml after 24 hr by […]; type: functional; settings: for zone of inhibition at 100 µg/mL: read-out: DIZ
Staphylococcus aureus [8] = assay: Antibacterial activity against Staphylococcus aureus at 0.2 mg/ml after 24 hr by […]; type: functional
Bacillus subtilis [9] = assay: Antibacterial activity against Bacillus subtilis at 1 mg/ml after 24 hr by […]; type: functional; settings: read-out: DIZ

Structure (SMILES) | diameter of the inhibition zone (DIZ) (Candida albicans) | diameter of the inhibition zone (DIZ) (Staphylococcus aureus [1]) | diameter of the inhibition zone (DIZ) (Aspergillus fumigatus [2]) | zone of inhibition at 1000 µg/mL (Aspergillus fumigatus [3]) [mm] | diameter of the inhibition zone (DIZ) (Aspergillus fumigatus [4]) | zone of inhibition at 200 µg/mL (Bacillus subtilis [5]) [mm] | zone of inhibition at 1000 µg/mL (Staphylococcus aureus [6]) [mm] | zone of inhibition at 100 µg/mL (Bacillus subtilis [7]) [mm] | diameter of the inhibition zone (DIZ) (Staphylococcus aureus [8]) | zone of inhibition at 1000 µg/mL (Bacillus subtilis [9]) [mm] | diameter of the inhibition zone (DIZ) (Aspergillus fumigatus [3]) | diameter of the inhibition zone (DIZ) (Bacillus subtilis [7]) | zone of inhibition at 100 µg/mL (Staphylococcus aureus [1]; read-out: DIZ) [mm] | zone of inhibition at 200 µg/mL (Staphylococcus aureus [8]; read-out: DIZ) [mm] | zone of inhibition at 200 µg/mL (Aspergillus fumigatus [2]; read-out: DIZ) [mm] | diameter of the inhibition zone (DIZ) (Staphylococcus aureus [6])
CN1CCN(c2c(F)cc3c(=O)c(C(=O)O)cn(C(C(=O)O)c4ccccc4)c3c2F)CC1 (stereo not given) | inactive | inactive | inactive | 0.6 | inactive | 0.9 | 0.6 | 0.6 | inactive | 1.05 | – | – | – | – | – | –
CC(C)CC(C(=O)O)n1cc(C(=O)O)c(=O)c2cc(F)c(N3CCN(C)CC3)c(F)c21 (stereo not given) | inactive | inactive | inactive | – | inactive | 0.95 | 0.6 | – | inactive | 1.15 | inactive | inactive | – | – | – | –
C[C@H]1COc2c(N3CCN(C)CC3)c(F)cc3c(=O)c(C(=O)O)cn1c23 [LEVOFLOXACIN HYDROCHLORIDE] | inactive | – | inactive | – | inactive | 3.8 | 3.3 | 3.6 | – | 4.6 | inactive | – | 2.6 | 2.9 | – | –
CN1CCN(c2c(F)cc3c(=O)c(C(=O)O)cn(C(Cc4ccccc4)C(=O)O)c3c2F)CC1 (stereo not given) | inactive | inactive | inactive | 0.75 | inactive | 0.95 | 0.8 | – | inactive | 1.2 | – | inactive | – | – | – | –
CCC(C)C(C(=O)O)n1cc(C(=O)O)c(=O)c2cc(F)c(N3CCN(C)CC3)c(F)c21 (stereo not given) | inactive | inactive | inactive | – | inactive | 1.15 | 0.6 | 0.6 | inactive | 1.2 | inactive | – | – | – | – | –
CN1CCN(c2c(F)cc3c(=O)c(C(=O)O)cn(CC(=O)O)c3c2F)CC1 | inactive | inactive | – | 1 | inactive | 0.9 | 0.7 | 0.65 | inactive | 1.1 | – | – | – | – | 0.6 | –
CC(C)C(C(=O)O)n1cc(C(=O)O)c(=O)c2cc(F)c(N3CCN(C)CC3)c(F)c21 (stereo not given) | inactive | inactive | inactive | – | inactive | 0.7 | – | – | inactive | 1 | inactive | inactive | – | – | – | inactive
